# Test results from US6812243B2, “Indole derivatives and their use for the treatment of malignant and other diseases based on pathological proliferation” (Zentaris AG, priority 1998, dated 2004).
# Where two headings read alike, the source gives them in different places.
# How the values were obtained:
# [1] = molecular target: T1, EGF receptor tyrosine kinase (Homo sapiens, UniProt P00533); assay: EGFR phosphorylation in intact A 431 cells; assay type: cell-based; settings: intact A431 cells; read-out: EGFR phosphorylation in vivo (A 431 cells), IC 50
# T1 construct: tested in intact A431 cells; endogenous in cells; host or cells: A431 cells
# Protocol: The compounds according to the invention were furthermore investigated in vitro using isolated plasma membranes of Swiss 3T3 cells and using PDGF receptor purified from overexpressing cells, tested in intact A431 cells (and in some cases also in Swiss 3T3 plasma membranes) for possible inhibition of the EGF receptor tyrosine kinase and tested for inhibition of recombinant Src kinase.
# 30 μM. The compounds thus have specificity for the inhibition of the PDGF receptor tyrosine kinase in relation to other tyrosine kinases.
# [2] = test system: Swiss 3T3 cells; assay: DNA synthesis in growth factor stimulated Swiss 3T3 cells; assay type: cell-based
# Excerpt: DNA synthesis tests in Swiss 3T3 cells which are stimulated with different growth factors are suitable for characterizing selective antiproliferative actions of receptor tyrosine kinase inhibitors. The compounds were investigated with respect to their action on the DNA sythesis stimulated in these cells by PDGF-BB, bFGF, FCS and the combination of EGF and insulin. These stimulants are approximately equipotent and increase the DNA synthesis in previously growth-arrested Swiss 3T3 cells to 5- to 20-fold.
# [3] = test system: sis-transformed NIH3T3 cells; assay: Colony formation of sis-3T3 cells in soft agar; assay type: cell-based; settings: Mus musculus, read-out: Colony formation (sis-3T3 cells), IC 50
# Excerpt: Furthermore, the compounds were investigated for a possible antitransforming action using sis-transformed NIH3T3 cells. In these cells, a transformed phenotype characterized, inter alia, by irregular multilayered growth and colony formation in soft agar is maintained by expression of PDGF-BB and permanent activation of the endogenous PDGF receptors.
# [4] = molecular target: T2, PDGF receptor (Mus musculus, UniProt P05622); assay: Inhibition of PDGF-dependent tyrosine phosphorylation in intact Swiss 3T3 cells; assay type: cell-based; settings: 2 h incubation with compound, PDGF-BB 100 ng/ml for 5 min, read-out: IC 50 (μM), inhibition of PDGF-dependent tyrosine phosphorylation
# T2 construct: other: Swiss 3T3 cells, 2 h incubation with compound; PDGFR phosphorylation in vivo (Swiss 3T3 cells), IC 50; other: intact Swiss 3T3 cells; PDGFR phosphorylation in vitro (Swiss 3T3 membranes), IC 50; other: isolated plasma membranes of Swiss 3T3 cells
# T2 sequence (P05622 32-1098): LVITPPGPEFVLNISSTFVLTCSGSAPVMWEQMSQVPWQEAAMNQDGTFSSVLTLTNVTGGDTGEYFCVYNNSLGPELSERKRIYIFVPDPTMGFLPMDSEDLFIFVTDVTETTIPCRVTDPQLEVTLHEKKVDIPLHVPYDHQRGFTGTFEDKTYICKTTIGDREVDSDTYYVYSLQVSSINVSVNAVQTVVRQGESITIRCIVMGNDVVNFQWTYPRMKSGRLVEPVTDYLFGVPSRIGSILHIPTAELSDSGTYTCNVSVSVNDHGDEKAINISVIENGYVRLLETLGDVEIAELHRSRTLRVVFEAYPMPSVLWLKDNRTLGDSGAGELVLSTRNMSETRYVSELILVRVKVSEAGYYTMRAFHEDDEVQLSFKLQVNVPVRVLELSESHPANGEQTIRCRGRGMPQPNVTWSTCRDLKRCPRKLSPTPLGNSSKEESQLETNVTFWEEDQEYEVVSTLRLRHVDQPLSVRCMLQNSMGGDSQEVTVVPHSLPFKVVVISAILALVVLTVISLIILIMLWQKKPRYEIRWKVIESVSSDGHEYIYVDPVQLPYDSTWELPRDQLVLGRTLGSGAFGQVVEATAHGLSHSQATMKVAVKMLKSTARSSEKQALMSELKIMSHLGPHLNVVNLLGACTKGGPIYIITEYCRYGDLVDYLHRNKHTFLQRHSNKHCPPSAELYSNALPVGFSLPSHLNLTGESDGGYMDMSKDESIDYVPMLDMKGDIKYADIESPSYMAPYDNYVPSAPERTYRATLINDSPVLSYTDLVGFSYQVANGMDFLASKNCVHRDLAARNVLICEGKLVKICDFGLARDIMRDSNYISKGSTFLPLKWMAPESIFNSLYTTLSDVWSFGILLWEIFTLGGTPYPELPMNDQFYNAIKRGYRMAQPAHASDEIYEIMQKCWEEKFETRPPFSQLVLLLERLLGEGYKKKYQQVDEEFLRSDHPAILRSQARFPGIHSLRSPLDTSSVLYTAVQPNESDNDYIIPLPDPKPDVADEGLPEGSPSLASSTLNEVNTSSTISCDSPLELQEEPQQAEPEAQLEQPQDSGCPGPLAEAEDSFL
# Protocol: Swiss 3T3 cells are cultured for 1 week under standard conditions (DMEM with glutamine, 4 g of glucose/1, 10% FCS, antibiotics, 5-7.5% CO2) and are confluent and no longer proliferating at the end of the culture period. The medium is replaced by serum-free DMEM and the cells are incubated at 37° C. for 2 h with the compounds according to the invention or, in control experiments, with DMSO (final concentration 0.1-1%). The cells are then stimulated at room temperature for 5 min by addition of PDGF-BB to a final concentration of 100 ng/ml, in controls addition of the corresponding solvent takes place. The cells are then washed twice with ice-cold PBS and lysed in a Triton X-100-containing lysis buffer (composition and process as described in Selective platelet-derived growth factor receptor kinase blockers reverse sis-transformation M. Kovalenko, A. Gazit, A. Böhmer, C. Rorsman, L. Rönnstrand, C. H. Heldin, J. Waltenberger, F. D. Böhmer, A. Levitzki (1994) Cancer Res. 54, 6106-6114). The lysates are centrifuged and the protein concentration is determined. […]
# Tyrosine phosphorylation is detected by standard processes using antiphosphosphotyrosine [sic]antibodies. […] Quantification is carried out either by grey value analyses of films used for the luminescence detection or directly using a luminometer. […]
# T1 sequence (P00533 25-1210): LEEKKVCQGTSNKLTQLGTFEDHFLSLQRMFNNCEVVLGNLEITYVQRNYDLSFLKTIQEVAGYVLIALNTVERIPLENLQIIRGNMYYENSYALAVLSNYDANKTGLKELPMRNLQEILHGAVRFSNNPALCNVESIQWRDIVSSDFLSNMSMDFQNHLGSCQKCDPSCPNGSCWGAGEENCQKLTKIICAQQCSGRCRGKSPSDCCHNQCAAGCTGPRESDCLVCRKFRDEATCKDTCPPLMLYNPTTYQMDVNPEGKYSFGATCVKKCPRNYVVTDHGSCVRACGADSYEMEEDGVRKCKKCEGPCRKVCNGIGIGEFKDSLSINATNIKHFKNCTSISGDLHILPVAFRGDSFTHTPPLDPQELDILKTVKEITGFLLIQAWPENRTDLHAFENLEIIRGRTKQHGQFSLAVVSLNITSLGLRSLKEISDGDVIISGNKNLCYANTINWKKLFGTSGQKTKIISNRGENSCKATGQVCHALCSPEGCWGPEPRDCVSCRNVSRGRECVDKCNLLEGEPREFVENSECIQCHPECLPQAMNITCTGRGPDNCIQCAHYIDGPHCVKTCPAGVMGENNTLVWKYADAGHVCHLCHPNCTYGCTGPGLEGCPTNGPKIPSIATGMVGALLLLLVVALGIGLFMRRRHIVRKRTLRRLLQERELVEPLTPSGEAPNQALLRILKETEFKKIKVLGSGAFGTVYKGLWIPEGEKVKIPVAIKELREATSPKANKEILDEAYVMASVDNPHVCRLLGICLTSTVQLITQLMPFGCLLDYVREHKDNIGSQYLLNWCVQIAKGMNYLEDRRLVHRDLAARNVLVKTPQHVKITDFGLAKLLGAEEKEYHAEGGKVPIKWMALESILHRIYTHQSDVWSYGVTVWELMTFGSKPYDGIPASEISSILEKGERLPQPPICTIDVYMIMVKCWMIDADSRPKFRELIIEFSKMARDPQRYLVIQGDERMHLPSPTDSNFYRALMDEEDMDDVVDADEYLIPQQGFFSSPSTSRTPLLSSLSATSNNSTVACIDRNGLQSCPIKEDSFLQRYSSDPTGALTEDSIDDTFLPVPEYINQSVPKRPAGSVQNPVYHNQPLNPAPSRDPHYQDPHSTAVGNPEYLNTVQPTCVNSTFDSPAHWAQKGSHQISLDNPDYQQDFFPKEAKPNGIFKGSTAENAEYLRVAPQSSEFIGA
smiles,measurement,setting,value
"O=C(c1cc2ccccc2[nH]1)c1cc2ccccc2[nH]1 [Example 19, Bisindol-2-ylmethan-1-one]",IC50,[1],> 10 µM
same,IC50,"[2]; Swiss-3T3, read-out: DNA synthesis (Swiss 3T3 cells), 10% FCS, IC 50",> 30 µM
same,IC50,"[2]; Swiss-3T3, read-out: DNA synthesis (Swiss 3T3 cells), EGF/insulin-stimulated, IC 50",> 30 µM
same,IC50,"[2]; Swiss-3T3, read-out: DNA synthesis (Swiss 3T3 cells), FGF-stimulated, IC 50",3 to 10 µM
same,IC50,"[2]; Swiss-3T3, read-out: DNA synthesis (Swiss 3T3 cells), PDGF-stimulated, IC 50",3 to 10 µM
same,IC50,[3],3 to 10 µM
"COc1ccc2[nH]c(C(=O)c3cc4ccccc4[nH]3)cc2c1 [Example 20, (5-Methoxyindol-2-yl)-(indol-2-yl)methan-1-one]",IC50,[1],> 10 µM
same,melting point,,233 to 235 °C
O=C(Cc1cccs1)Oc1ccc2[nH]c(C(=O)c3cc4ccccc4[nH]3)cc2c1 [Example 58],IC50,[4],0.3 to 1 µM
"CN1C(=O)C(Br)=C(c2c(CCCCc3[nH]c4ccccc4c3C3=C(Br)C(=O)N(C)C3=O)[nH]c3ccccc23)C1=O [Example 117, 3-Bromo-4-(2-(4-(3-(4-bromo-1-methyl-2,5-dioxo-2,5-dihydro-1H-3-pyrrolyl)-1H-2-indolyl)butyl)-1H-3-indolyl)-1-methyl-2,5-dihydro-1H-pyrrole-2,5-dione]",melting point,,190 °C (dec.)
"CN1C(=O)C(Br)=C(c2c(CCCCCCCCc3[nH]c4ccccc4c3C3=C(Br)C(=O)N(C)C3=O)[nH]c3ccccc23)C1=O [Example 118, 3-Bromo-4-(2-(8-(3-(4-bromo-1-methyl-2,5-dioxo-2,5-dihydro-1H-3-pyrrolyl)-1H-2-indolyl)octyl)-1H-3-indolyl)-1-methyl-2,5-dihydro-1H-pyrrole-2,5-dione]",melting point,,185 °C (dec.)
"O=C1NC(=O)C(c2c(CCCCCCCCCCc3[nH]c4ccccc4c3C3=C(Br)C(=O)NC3=O)[nH]c3ccccc23)=C1Br [Example 120, 3-Bromo-4-(2-(10-(3-(4-bromo-2,5-dioxo-2,5-dihydro-1H-3-pyrrolyl)-1H-2-indolyl)decyl)-1H-3-indolyl)-2,5-dihydro-1H-pyrrole-2,5-dione]",melting point,,164 °C (dec.)
"CN1C(=O)C(c2c(CCCCCc3[nH]c4ccccc4c3C3=C(N4CCCCC4)C(=O)N(C)C3=O)[nH]c3ccccc23)=C(N2CCCCC2)C1=O [Example 124, 1-Methyl-3-(1-piperidinyl)-4-(2-(5-(3-(1-methyl-4-(1-piperidinyl)-2,5-dioxo-2,5-dihydro-1H-3-pyrrolyl)-1H-2-indolyl)pentyl)-1H-3-indolyl)-2,5-dihydro-1H-pyrrole-2,5-dione]",melting point,,262 °C
